Assays:
[1] = target: NAMPT (human, recombinant, C-terminally His-tagged) (Homo sapiens, UniProt P43490); assay: Time-Resolved Fluorescence Resonance Energy Transfer (TR-FRET) Binding Assay of NAMPT; details: without substrates; 6.8 nM NAMPT, 200 nM probe, 3 hours equilibration
How it was run: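 In a displacement format, the nicotinamide-site tracer at 200 nM competed with test compound for 6.8 nM enzyme detected via 1 nM terbium anti-His antibody; incubation lasted 3 hours at room temperature in 50 mM HEPES pH 7.5, 100 mM NaCl. Normalized 520/495 nm emission ratios gave IC50 values.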

NAMPT = NAMPT (Homo sapiens, UniProt P43490); assay: TR-FRET Binding Assay of NAMPT with PRPP; details: with 200 μM PRPP and 2.5 mM ATP; 2 nM NAMPT, 2 nM probe, 16 hours equilibration
Chain of NAMPT (P43490 whole entry): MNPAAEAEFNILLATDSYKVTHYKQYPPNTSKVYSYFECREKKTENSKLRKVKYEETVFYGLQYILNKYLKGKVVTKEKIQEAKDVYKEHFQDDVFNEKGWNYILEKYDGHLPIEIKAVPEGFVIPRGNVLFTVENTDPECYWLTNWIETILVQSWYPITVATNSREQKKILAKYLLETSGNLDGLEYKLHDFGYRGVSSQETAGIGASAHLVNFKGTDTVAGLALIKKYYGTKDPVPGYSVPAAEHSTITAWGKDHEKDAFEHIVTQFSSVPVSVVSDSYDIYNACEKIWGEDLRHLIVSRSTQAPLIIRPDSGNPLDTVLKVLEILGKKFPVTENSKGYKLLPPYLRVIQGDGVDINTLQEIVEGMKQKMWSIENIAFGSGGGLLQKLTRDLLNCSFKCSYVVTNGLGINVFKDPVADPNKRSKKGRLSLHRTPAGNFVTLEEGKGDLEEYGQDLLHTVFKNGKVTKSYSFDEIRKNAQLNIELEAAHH
How it was run: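 Substrate-containing variant: 200 μM PRPP plus 2.5 mM ATP are added to 2 nM NAMPT and 2 nM probe, with a 16-hour incubation ahead of TR-FRET reading.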

PC3 cells = assay: NAMPT Cell Proliferation Assay; assay type: cell-based; details: Homo sapiens, PC-3, 120 h, 5 days incubation, cell viability by Cell Titer Glo
How it was run: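 Following overnight attachment in RPMI with 10% heat-inactivated FBS, PC3 cells at 500 per well receive compounds spanning 10 μM down to 1×10^−5 μM. Growth is assessed by luminescent viability read after 5 days.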

Chain of NAMPT (human, recombinant, C-terminally His-tagged) (P43490 whole entry): as above

Compound | IC50 [1] [nM] | IC50 (NAMPT) [nM] | IC50 (PC3 cells) [nM]
CC(C)(O)CC(=O)N1CCC(c2ccc(NC(=O)NCc3ccn4ccnc4c3)cc2)CC1 [Example 226, 1-{4-[1-(3-hydroxy-3-methylbutanoyl)piperidin-4-yl]phenyl}-3-(imidazo[1,2-a]pyridin-7-ylmethyl)urea] | 113 | 0.608 | 7.26
CC(C)(O)C(=O)N1CCC(c2ccc(NC(=O)NCc3ccn4ccnc4c3)cc2)CC1 [Example 227, 1-{4-[1-(2-hydroxy-2-methylpropanoyl)piperidin-4-yl]phenyl}-3-(imidazo[1,2-a]pyridin-7-ylmethyl)urea] | 16.2 | 0.273 | 6.28
CC(C)C(=O)N1CCC(c2ccc(NC(=O)NCc3ccn4ccnc4c3)cc2)CC1 [Example 228, 1-(imidazo[1,2-a]pyridin-7-ylmethyl)-3-{4-[1-(2-methylpropanoyl)piperidin-4-yl]phenyl}urea] | 49.4 | 0.238 | 8.56
O=C(NCc1ccn2ccnc2c1)Nc1ccc(C2CCN(C(=O)c3ccccc3)CC2)cc1 [Example 229, 1-[4-(1-benzoylpiperidin-4-yl)phenyl]-3-(imidazo[1,2-a]pyridin-7-ylmethyl)urea] | 13.6 | 0.398 | 1.06
CC(C)(O)C(=O)N1CCC(c2ccc(C(=O)NCc3ccn4ccnc4c3)cc2)CC1 [Example 230, 4-[1-(2-hydroxy-2-methylpropanoyl)piperidin-4-yl]-N-(imidazo[1,2-a]pyridin-7-ylmethyl)benzamide] | 294 | 0.169 | 7.2
O=C(NCc1ccn2ccnc2c1)c1ccc(C2CCN(C(=O)C3CCOC3)CC2)cc1 (stereo not drawn) [Example 231, N-(imidazo[1,2-a]pyridin-7-ylmethyl)-4-[1-(tetrahydrofuran-3-ylcarbonyl)piperidin-4-yl]benzamide] | 817 | 0.546 | 35.1

Other lines, results leading:

IC50 [1] [nM] | IC50 (NAMPT) [nM] | IC50 (PC3 cells) [nM] | Compound
74.2 | 0.278 | 5.73 | O=C(NCc1ccn2ccnc2c1)Nc1ccc(C2CCN(C(=O)C3CCCO3)CC2)cc1 (stereo not drawn) [Example 220, 1-(imidazo[1,2-a]pyridin-7-ylmethyl)-3-{4-[1-(tetrahydrofuran-2-ylcarbonyl)piperidin-4-yl]phenyl}urea]
120 | 0.352 | 7.82 | O=C(NCc1ccn2ccnc2c1)Nc1ccc(C2CCN(C(=O)C3CCOCC3)CC2)cc1 [Example 221, 1-(imidazo[1,2-a]pyridin-7-ylmethyl)-3-{4-[1-(tetrahydro-2H-pyran-4-ylcarbonyl)piperidin-4-yl]phenyl}urea]
112 | 0.192 | 4.08 | O=C(NCc1ccn2ccnc2c1)Nc1ccc(C2CCN(C(=O)C3COCCO3)CC2)cc1 (stereo not drawn) [Example 222, 1-{4-[1-(1,4-dioxan-2-ylcarbonyl)piperidin-4-yl]phenyl}-3-(imidazo[1,2-a]pyridin-7-ylmethyl)urea]
109 | 0.354 | 7.08 | O=C(NCc1ccn2ccnc2c1)Nc1ccc(C2CCN(C(=O)CC3CCOCC3)CC2)cc1 [Example 223, 1-(imidazo[1,2-a]pyridin-7-ylmethyl)-3-{4-[1-(tetrahydro-2H-pyran-4-ylacetyl)piperidin-4-yl]phenyl}urea]
233 | 0.555 | 23 | O=C(NCc1ccn2ccnc2c1)Nc1ccc(C2CCN(C(=O)CN3CCOCC3)CC2)cc1 [Example 224, 1-(imidazo[1,2-a]pyridin-7-ylmethyl)-3-{4-[1-(morpholin-4-ylacetyl)piperidin-4-yl]phenyl}urea]
155 | 0.673 | 9.27 | O=C(NCc1ccn2ccnc2c1)Nc1ccc(C2CCN(C(=O)CC3CCCO3)CC2)cc1 (stereo not drawn) [Example 225, 1-(imidazo[1,2-a]pyridin-7-ylmethyl)-3-{4-[1-(tetrahydrofuran-2-ylacetyl)piperidin-4-yl]phenyl}urea]

From US9187472B2 (AbbVie Inc., priority 2012, dated 2015)
